Experimental data taken from patent US10022453B2 (BAYER PHARMA AKTIENGESELLSCHAFT, priority 2013, dated 2018).

Columns and labels:
NCI-H292 = experiment: Cytotoxic effects, MTT assay; type: cell-based; details: Homo sapiens, 72 h incubation
Protocol: The cells are cultivated by a standard method, as indicated in the […] (ATCC) for the respective cell lines.
At the end of the selected incubation time, the MTT reagent is incubated with the cells for 4 h, followed by lysis of the cells overnight by addition of the detergent. […] The proliferation of cells which were not treated with test substance but were otherwise identically treated was defined as the 100% figure.

[1] = Cell permeability, flux assay using Caco-2 cells; details: human, Caco-2
Protocol: C-3 In Vitro Tests for Determining Cell Permeability
The cell permeability of a substance can be investigated by means of in vitro testing in a flux assay using Caco-2 cells [M. D. Troutman and D. R. Thakker, Pharm. […] For this purpose, the cells were cultured for 15-16 days on 24-well filter plates. For the determination of permeation, the respective working example was applied in a HEPES buffer to the cells either apically (A) or basally (B) and incubated for 2 hours. After 0 hours and after 2 hours, samples were taken from the cis and trans compartments. The samples were separated by HPLC (Agilent 1200, Böblingen, Germany) using reverse phase columns.
Of critical importance for toxophores which are released intracellularly is the permeability from B to A [Papp(B-A)] and the ratio of Papp(B-A) to Papp(A-B) (efflux ratio): the lower this permeability, the slower the active and passive transport processes of the substance through the monolayer of Caco-2 cells.

[2] = molecular target: T1, human kinesin spindle protein KSP/Eg5 (Homo sapiens, UniProt P52732); experiment: Inhibition of the kinesin spindle protein KSP/Eg5 (ATPase, malachite green); type: biochemical; details: 10 nM KSP motor domain, 500 μM ATP, 2 h RT
T1 construct: The motor domain of the human kinesin spindle protein KSP/Eg5; purchased tebu-bio/Cytoskeleton Inc 027EG01-XL
T1 sequence (P52732 18-359 limits assumed): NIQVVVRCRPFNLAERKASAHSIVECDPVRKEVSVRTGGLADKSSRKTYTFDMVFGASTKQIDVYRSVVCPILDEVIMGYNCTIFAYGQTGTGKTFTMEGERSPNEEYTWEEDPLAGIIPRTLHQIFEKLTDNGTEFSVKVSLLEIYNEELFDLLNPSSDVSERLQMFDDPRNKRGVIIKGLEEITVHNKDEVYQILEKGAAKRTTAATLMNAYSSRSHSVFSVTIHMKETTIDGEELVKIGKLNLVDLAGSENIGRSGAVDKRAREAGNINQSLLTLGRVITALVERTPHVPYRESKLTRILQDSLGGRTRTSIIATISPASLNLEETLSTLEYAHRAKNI
Protocol: C-1b Determination of the Inhibition of the Kinesin Spindle Protein KSP/Eg5 by Selected Examples
The motor domain of the human kinesin spindle protein KSP/Eg5 (from tebu-bio/Cytoskeleton Inc, No. 027EG01-XL) is incubated at a concentration of 10 nM with 50 μg/ml taxol- (from Sigma No. T7191-5MG) stabilized microtubuli (bovine or porcine, from tebu-bio/Cytoskeleton Inc) for 5 min at RT in 15 mM PIPES, pH 6.8 (5 mM MgCl2 and 10 mM DTT, from Sigma). The freshly prepared mixture is aliquoted into a 384-well MTP. The inhibitors to be examined at concentrations of 1.0×10^−6 M to 1.0×10^−13 and ATP (final concentration 500 μM, from Sigma) are then added. Incubation is at RT for 2 h. ATPase activity is detected by detecting the inorganic phosphate formed using malachite green (from Biomol). […] The individual data of the dose-activity curve are eight-fold determinations. The IC50 values are means of three independent experiments.

| SMILES | IC50 (NCI-H292) [nM] | Papp B→A at 2 h [1] [×10⁻⁶ cm/s] | efflux ratio at 2 h [1] | IC50 [2] [nM] |
| --- | --- | --- | --- | --- |
| CC(C)(C)[C@H](c1cc(-c2cc(F)ccc2F)cn1Cc1ccccc1)N(CCCN)C(=O)CSCCC(NC(=O)CCOCCOCCOCCOCCNC(=O)CCN1C(=O)CC(SC[C@H](N)C(=O)O)C1=O)C(=O)O.O=C(O)C(F)(F)F (mixture of isomers) [Example 138, N-[19-(3(R/S)-{[(2R)-2-amino-2-carboxyethyl]sulphanyl}-2,5-dioxopyrrolidin-1-yl)-17-oxo-4,7,10,13-tetraoxa-16-azanonadecan-1-oyl]-R/S-{2-[(3-aminopropyl){(1R)-1-[1-benzyl-4-(2,5-difluorophenyl)-1H-pyrrol-2-yl]-2,2-dimethylpropyl}amino]-2-oxoethyl}homocysteine/trifluoroacetic acid (1:1)] | ≥ 500 | 0.17 | 1.6 | – |
| CC(C)(C)[C@H](c1cc(-c2cc(F)ccc2F)cn1Cc1ccccc1)N(CCCN)C(=O)CO [Example 98, N-(3-aminopropyl)-N-{(1R)-1-[1-benzyl-4-(2,5-difluorophenyl)-1H-pyrrol-2-yl]-2,2-dimethylpropyl}-2-hydroxyacetamide] | 1.65 | – | – | 1.8 |
| CNC(=O)[C@@H](N)CCN(C(=O)CO)[C@@H](c1cc(-c2cc(F)ccc2F)cn1Cc1ccccc1)C(C)(C)C.O=C(O)C(F)(F)F [Example 99, Trifluoroacetic acid/(2S)-2-amino-4-[{(1R)-1-[1-benzyl-4-(2,5-difluorophenyl)-1H-pyrrol-2-yl]-2,2-dimethylpropyl}(glycoloyl)amino]-N-methylbutanamide (1:1)] | 0.851 | 30.3 | 8.7 | – |
| CC(C)(C)[C@@H](c1cc(-c2cc(F)ccc2F)cn1Cc1ccccc1)N(CCCN)C(=O)CO [Example 102, N-(3-Aminopropyl)-N-{(1S)-1-[1-benzyl-4-(2,5-difluorophenyl)-1H-pyrrol-2-yl]-2,2-dimethylpropyl}-2-hydroxyacetamide] | 32.9 | – | – | 4.7 |
| CC(C)(C)[C@H](c1cc(-c2cc(F)ccc2F)cn1Cc1ccccc1)N(CC[C@H](N)C(=O)NCCNC(=O)CN1C(=O)CC(SC[C@H](N)C(=O)O)C1=O)C(=O)CO.O=C(O)C(F)(F)F (stereo partly drawn) [Example 135, S-[1-(2-{[2-({(2S)-2-Amino-4-[{(1R)-1-[1-benzyl-4-(2,5-difluorophenyl)-1H-pyrrol-2-yl]-2,2-dimethylpropyl}(glycoloyl)amino]butanoyl}amino)ethyl]amino}-2-oxoethyl)-2,5-dioxopyrrolidin-3-yl]-L-cysteine/trifluoroacetic acid (1:1)] | ≥ 500 | 0.78 | 4 | – |
| CC(C)(C)[C@H](c1cc(-c2cc(F)ccc2F)cn1Cc1ccccc1)N(CC[C@H](N)C(=O)NCCNC(=O)CSC[C@H](N)C(=O)O)C(=O)CO.O=C(O)C(F)(F)F [Example 158, S-(2-{[2-({(2S)-2-Amino-4-[{(1R)-1-[1-benzyl-4-(2,5-difluorophenyl)-1H-pyrrol-2-yl]-2,2-dimethylpropyl}(glycoloyl)amino]butanoyl}amino)ethyl]amino}-2-oxoethyl)-L-cysteine/trifluoroacetic acid (1:1)] | 22.2 | 0.56 | 2.2 | – |
| CC(C)(C)[C@H](c1cc(-c2cc(F)ccc2F)cn1Cc1ccccc1)N(CC[C@H](N)C(=O)NCCNC(=O)CC[C@H](N)C(=O)O)C(=O)CO.O=C(O)C(F)(F)F [Example 161, N-[2-({(2S)-2-Amino-4-[{(1R)-1-[1-benzyl-4-(2,5-difluorophenyl)-1H-pyrrol-2-yl]-2,2-dimethylpropyl}(glycoloyl)amino]butanoyl}amino)ethyl]-L-glutamine/trifluoroacetic acid (1:1)] | 35.5 | 0.16 | – | – |
| CC(C)(C)[C@H](c1cc(-c2cc(F)ccc2F)cn1Cc1ccccc1)N(CC[C@H](N)C(=O)NCCC(=O)NCCCC[C@H](N)C(=O)O)C(=O)CO.O=C(O)C(F)(F)F [Example 162, N^6-(N-(2S)-2-Amino-4-[{(1R)-1-[1-benzyl-4-(2,5-difluorophenyl)-1H-pyrrol-2-yl]-2,2-dimethylpropyl (glycoloyl)amino]butanoyl}-beta-alanyl)-L-lysine/trifluoroacetic acid (1:1)] | 121 | 0.2 | – | – |
| CC(=O)N(CCCN)[C@@H](c1nn(-c2cc(F)ccc2F)cc1Cc1ccccc1)C(C)(C)C [Example 181, N-(3-Aminopropyl)-N-{(1R)-1-[4-benzyl-1-(2,5-difluorophenyl)-1H-pyrazol-3-yl]-2,2-dimethylpropyl}acetamide] | 7.72 | – | – | 7.9 |
| COCC(=O)N(CCCN)[C@@H](c1nn(-c2cc(F)ccc2F)cc1Cc1ccccc1)C(C)(C)C [Example 182, N-(3-aminopropyl)-N-{(1R)-1-[4-benzyl-1-(2,5-difluorophenyl)-1H-pyrazol-3-yl]-2,2-dimethylpropyl}-2-methoxyacetamide] | 1.2 | – | – | 10.4 |
| CC(C)(C)[C@H](c1nn(-c2cc(F)ccc2F)cc1Cc1ccccc1)N(CCCN)C(=O)c1ccc(F)cc1F [Example 183, N-(3-aminopropyl)-N-{(1R)-1-[4-benzyl-1-(2,5-difluorophenyl)-1H-pyrazol-3-yl]-2,2-dimethylpropyl}-2,4-difluorobenzamide] | 32.9 | – | – | 6.21 |
| Cc1ccc(C(=O)N(CCCN)[C@@H](c2nn(-c3cc(F)ccc3F)cc2Cc2ccccc2)C(C)(C)C)cc1 [Example 184, N-(3-aminopropyl)-N-{(1R)-1-[4-benzyl-1-(2,5-difluorophenyl)-1H-pyrazol-3-yl]-2,2-dimethylpropyl}-4 methylbenzamide] | 27.8 | – | – | 14.3 |
| CCOCC(=O)N(CCCN)[C@@H](c1nn(-c2cc(F)ccc2F)cc1Cc1ccccc1)C(C)(C)C [Example 185, N-(3-aminopropyl)-N-{(1R)-1-[4-benzyl-1-(2,5-difluorophenyl)-1H-pyrazol-3-yl]-2,2-dimethylpropyl}-2-ethoxyacetamide] | 12 | – | – | 18 |
| CC(C)(C)[C@H](c1cc(-c2cc(F)ccc2F)cn1Cc1ccccc1)N(CCCN)C(=O)CC(F)(F)F [Example 186, N-(3-Aminopropyl)-N-{(1R)-1-[1-benzyl-4-(2,5-difluorophenyl)-1H-pyrrol-2-yl]-2,2-dimethylpropyl}-3,3,3-trifluoropropanamide] | 9.29 | – | – | 25.3 |
| CC(C)(C)[C@H](c1cc(-c2cc(F)ccc2F)cn1Cc1ccccc1)N(CCCN)C(=O)c1ccc(F)cc1 [Example 187, N-(3-aminopropyl)-N-{(1R)-1-[1-benzyl-4-(2,5-difluorophenyl)-1H-pyrrol-2-yl]-2,2-dimethylpropyl}-4-fluorobenzamide] | 1.98 | – | – | 14.1 |
| CC(=O)N(CCCN)[C@@H](c1cc(-c2cc(F)ccc2F)cn1Cc1ccccc1)C(C)(C)C [Example 188, N-(3-aminopropyl)-N-{(1R)1-[1-benzyl-4-(2,5-difluorophenyl)-1H-pyrrol-2-yl]-2,2-dimethylpropyl}acetamide] | 0.928 | – | – | 10.1 |
| CC(C)(C)[C@H](c1cc(-c2cc(F)ccc2F)cn1Cc1ccccc1)N(CCCN)C(=O)c1ccc(C(F)(F)F)cc1 [Example 189, N-(3-aminopropyl)-N-{(1R)-1-[1-benzyl-4-(2,5-difluorophenyl)-1H-pyrrol-2-yl]-2,2-dimethylpropyl}-4-(trifluoromethyl)benzamide] | 8.76 | – | – | 11.2 |
| CC(C)(C)[C@H](c1cc(-c2cc(F)ccc2F)cn1Cc1ccccc1)N(CCCN)C(=O)c1ccc(F)cc1F [Example 190] | 5.42 | – | – | 9.61 |
| CC(C)(C)[C@H](c1cc(-c2cc(F)ccc2F)cn1Cc1ccccc1)N(CC[C@H](N)C(=O)O)C(=O)CO.Cl [Example 197, (2S)-2-Amino-4-[{(1R)-1-[1-benzyl-4-(2,5-difluorophenyl)-1H-pyrrol-2-yl]-2,2-dimethylpropyl}(glycoloyl)amino]butanoic acid hydrochloride (1:1)] | 7.35 | 9.3 | – | – |
